Data: the supplement of paper PMC10307832

How the values were obtained:
Test in all cases: relative viability (nuclei count vs DMSO), 5 days (fraction); higher = more cells survive
[1] = compound: CC1=NN=C(O1)C2=NN=C(C=C2)N3CCC(CC3)OC4=C(C=CC(=C4)F)Cl + C[C@]1(O)C[C@@H](c2nc(-c3ccc4ccc(-c5ccccc5)nc4c3)c3c(N)nccn32)C1 [Linsitinib] (partner 1 µM)
Method in brief: (§1)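 Lung cancer cell lines in 1536-well plates were dosed by pin tool the day after seeding, either with one drug alone or with a fixed anchor-drug dose plus five library-drug doses (not always all listed) in √10 steps. After 5 days, cells were fixed and their nuclei stained in one step (final 0.05% Triton X-100, 1% formaldehyde, 1 ug/ml Hoechst), then counted on 4× images. Relative viability is the nuclei count in treated wells divided by that in vehicle wells. Values are medians of duplicate plates.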

Tosedostat + Navitoclax = compound: CC(C)C[C@@H](C(=O)N[C@H](C(=O)OC1CCCC1)c1ccccc1)[C@H](O)C(=O)NO [Tosedostat] + CC1(C)CCC(c2ccc(Cl)cc2)=C(CN2CCN(c3ccc(C(=O)NS(=O)(=O)c4ccc(N[C@H](CCN5CCOCC5)CSc5ccccc5)c(S(=O)(=O)C(F)(F)F)c4)cc3)CC2)C1 [Navitoclax] (partner 0.5 µM)
Method in brief: as §1

Tosedostat + Palbociclib = compound: CC(C)C[C@@H](C(=O)N[C@H](C(=O)OC1CCCC1)c1ccccc1)[C@H](O)C(=O)NO [Tosedostat] + CC(=O)c1c(C)c2cnc(Nc3ccc(N4CCNCC4)cn3)nc2n(C2CCCC2)c1=O [Palbociclib] (partner 0.5 µM)
Method in brief: as §1

[2] = compound: CC1=NN=C(O1)C2=NN=C(C=C2)N3CCC(CC3)OC4=C(C=CC(=C4)F)Cl + C[C@@H](Oc1cc(-c2cnn(C3CCNCC3)c2)cnc1N)c1c(Cl)ccc(F)c1Cl [Crizotinib] (partner 1 µM)
Method in brief: as §1

Cell Line | relative viability ([1]; first compound 0.253 µM) | relative viability ([1]; first compound 0.8 µM) | relative viability ([1]; first compound 2.53 µM) | relative viability ([1]; first compound 8 µM) | relative viability (Tosedostat + Navitoclax; first compound 0.02 µM) | relative viability (Tosedostat + Navitoclax; first compound 0.06325 µM) | relative viability (Tosedostat + Navitoclax; first compound 0.2 µM) | relative viability (Tosedostat + Navitoclax; first compound 0.6325 µM) | relative viability (Tosedostat + Navitoclax; first compound 2 µM) | relative viability (Tosedostat + Palbociclib; first compound 0.02 µM) | relative viability (Tosedostat + Palbociclib; first compound 0.06325 µM) | relative viability (Tosedostat + Palbociclib; first compound 0.2 µM) | relative viability (Tosedostat + Palbociclib; first compound 0.6325 µM) | relative viability (Tosedostat + Palbociclib; first compound 2 µM) | relative viability ([2]; first compound 0.253 µM) | relative viability ([2]; first compound 0.8 µM) | relative viability ([2]; first compound 2.53 µM) | relative viability ([2]; first compound 8 µM)
201T | 0.569 | 0.596 | 0.634 | 0.565 | 1.19 | 1.24 | 1.29 | 1.32 | 1.28 | 0.362 | 0.367 | 0.372 | 0.38 | 0.377 | 0.456 | 0.504 | 0.499 | 0.484
A549 | 0.543 | 0.565 | 0.427 | 0.351 | 1.37 | 1.15 | 1.14 | 1.19 | 1.01 |  |  |  |  |  | 0.461 | 0.383 | 0.316 | 0.319
A-427 | 0.947 |  | 0.907 | 0.887 | 0.921 | 0.925 | 0.999 | 1.03 | 0.925 | 0.501 | 0.514 | 0.55 | 0.494 | 0.507 | 0.826 |  | 0.779 | 0.671
ABC-1 | 0.627 | 0.465 | 0.575 | 0.451 |  |  |  |  |  | 0.826 | 0.706 | 0.704 | 0.576 | 0.531 | 0.686 | 0.615 | 0.426 | 0.436
BEN | 0.784 | 0.879 | 0.919 | 0.75 | 0.35 | 0.0546 | 0.0614 | 0.0633 | 0.0537 | 0.454 | 0.463 | 0.537 | 0.497 | 0.465 | 0.709 | 0.796 | 0.913 | 0.86
CAL-12T | 0.953 | 0.78 | 0.754 | 0.869 | 1.27 | 1.13 | 1.19 | 1.16 | 0.965 | 0.468 | 0.362 | 0.312 | 0.299 | 0.397 | 0.552 | 0.602 | 0.728 | 0.506
COR-L23 | 0.669 | 0.726 | 0.678 | 0.579 | 1.2 | 1.04 | 1.04 | 0.884 | 0.958 | 0.389 | 0.357 | 0.338 | 0.277 | 0.288 | 0.527 | 0.586 | 0.433 | 0.435
COR-L 105 | 0.764 | 0.935 | 1.1 | 1.21 | 0.673 | 0.624 | 0.707 | 0.722 | 0.512 | 0.402 | 0.43 | 0.398 | 0.357 | 0.392 | 0.689 | 0.907 | 0.786 | 0.82
Calu-6 | 0.635 | 0.612 | 0.691 | 0.656 | 0.919 | 0.787 | 0.655 | 0.668 | 0.461 |  |  |  |  |  | 0.485 | 0.469 | 0.483 | 0.465
ChaGo-K-1 |  |  |  |  | 1.23 | 1.1 | 0.905 | 1.01 | 0.761 | 1.01 | 0.907 | 0.87 | 0.858 | 0.671 | 0.76 | 0.669 | 0.721 | 0.694
